Assay: xn = mol fraction of the nth substance listed
Conditions: Liquid, Vibrating tube method

CC1CCCCC1 [methylcyclohexane] + CCO
mass density [kg/m3]
Conditions | 100 kPa | 5000 kPa | 10000 kPa | 15000 kPa | 20000 kPa | 25000 kPa | 30000 kPa | 35000 kPa | 40000 kPa | 45000 kPa
283.15 K, x2 = 0 | 777.6 | 781.4 | 785.2 | 788.7 | 792.1 | 795.3 | 798.5 | 801.5 | 804.4 | 807.3
283.15 K, x2 = 0.052 | 777.6 | 781.4 | 785.1 | 788.7 | 792.1 | 795.4 | 798.5 | 801.6 | 804.5 | 807.4
283.15 K, x2 = 0.125 | 777.7 | 781.6 | 785.3 | 788.9 | 792.4 | 795.6 | 798.8 | 801.9 | 804.8 | 807.7
283.15 K, x2 = 0.25 | 778.5 | 782.4 | 786.2 | 789.8 | 793.2 | 796.6 | 799.7 | 802.8 | 805.8 | 808.7
283.15 K, x2 = 0.375 | 779.8 | 783.6 | 787.4 | 791.1 | 794.6 | 797.9 | 801.1 | 804.2 | 807.2 | 810.1
283.15 K, x2 = 0.5 | 781.4 | 785.3 | 789.1 | 792.8 | 796.3 | 799.6 | 802.8 | 806 | 809 | 811.9
283.15 K, x2 = 0.625 | 783.5 | 787.4 | 791.3 | 794.9 | 798.5 | 801.8 | 805.1 | 808.2 | 811.3 | 814.2
283.15 K, x2 = 0.75 | 786.4 | 790.4 | 794.3 | 797.9 | 801.5 | 804.9 | 808.1 | 811.3 | 814.3 | 817.2
283.15 K, x2 = 0.875 | 790.9 | 794.8 | 798.7 | 802.4 | 805.9 | 809.3 | 812.6 | 815.8 | 818.8 | 821.8
293.15 K, x2 = 0 | 769 | 773 | 777 | 780.7 | 784.3 | 787.8 | 791.1 | 794.2 | 797.3 | 800.2
293.15 K, x2 = 0.052 | 768.8 | 772.8 | 776.8 | 780.6 | 784.2 | 787.6 | 790.9 | 794.1 | 797.2 | 800.2
293.15 K, x2 = 0.125 | 768.9 | 772.9 | 776.9 | 780.7 | 784.4 | 787.8 | 791.2 | 794.4 | 797.5 | 800.5
293.15 K, x2 = 0.25 | 769.6 | 773.7 | 777.8 | 781.6 | 785.2 | 788.7 | 792.1 | 795.3 | 798.4 | 801.5
293.15 K, x2 = 0.375 | 770.8 | 774.9 | 779 | 782.8 | 786.5 | 790 | 793.4 | 796.7 | 799.8 | 802.8
293.15 K, x2 = 0.5 | 772.5 | 776.6 | 780.7 | 784.5 | 788.2 | 791.8 | 795.2 | 798.4 | 801.6 | 804.6
293.15 K, x2 = 0.625 | 774.6 | 778.8 | 782.9 | 786.8 | 790.5 | 794 | 797.4 | 800.7 | 803.9 | 806.9
293.15 K, x2 = 0.75 | 777.7 | 781.8 | 785.9 | 789.9 | 793.6 | 797.1 | 800.5 | 803.8 | 807 | –
293.15 K, x2 = 0.875 | 782.2 | 786.4 | 790.5 | 794.4 | 798.1 | 801.7 | 805.1 | 808.4 | 811.6 | –

From the NIST ThermoML archive (doi:10.1016/j.jct.2005.03.016)
